Legend:
Histamine H3 receptor [1] = target: T1, Histamine H3 receptor (Rattus norvegicus, UniProt Q9QYN8); assay: Displacement of [3H]NAMH from histamine H3 receptor in rat cortex
Histamine H3 receptor [2] = target: Histamine H3 receptor (Homo sapiens, UniProt Q9Y5N1); assay: Displacement of [3H]NAMH from human full length histamine H3 receptor expressed in rat C6 cells; format: cell-based
Histamine H3 receptor [3] = target: Histamine H3 receptor (Cavia porcellus, UniProt Q9JI35); assay: Antagonist activity at histamine H3 receptor in guinea pig ileum assessed as inhibition of (R)-alpha-methylhistamine-induced response
Histamine H3 receptor [4] = target: T1, Histamine H3 receptor; assay: Displacement of [3H]NAMH from rat full length histamine H3 receptor expressed in rat C6 cells; format: cell-based; settings: read-out: Ki

T1 sequence (Q9QYN8 whole entry): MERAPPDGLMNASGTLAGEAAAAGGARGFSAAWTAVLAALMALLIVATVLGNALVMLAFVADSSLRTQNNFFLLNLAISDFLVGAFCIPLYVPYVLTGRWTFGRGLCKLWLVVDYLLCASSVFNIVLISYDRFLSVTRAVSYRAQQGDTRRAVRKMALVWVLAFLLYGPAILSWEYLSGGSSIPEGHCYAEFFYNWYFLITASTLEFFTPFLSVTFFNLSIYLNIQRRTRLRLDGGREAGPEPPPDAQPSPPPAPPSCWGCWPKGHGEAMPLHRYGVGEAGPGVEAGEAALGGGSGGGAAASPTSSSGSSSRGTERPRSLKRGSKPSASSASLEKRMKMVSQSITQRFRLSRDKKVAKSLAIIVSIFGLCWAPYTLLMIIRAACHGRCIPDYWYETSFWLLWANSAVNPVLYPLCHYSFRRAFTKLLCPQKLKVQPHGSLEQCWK
Chain of Histamine H3 receptor (Homo sapiens, UniProt Q9Y5N1) (Q9Y5N1 whole entry): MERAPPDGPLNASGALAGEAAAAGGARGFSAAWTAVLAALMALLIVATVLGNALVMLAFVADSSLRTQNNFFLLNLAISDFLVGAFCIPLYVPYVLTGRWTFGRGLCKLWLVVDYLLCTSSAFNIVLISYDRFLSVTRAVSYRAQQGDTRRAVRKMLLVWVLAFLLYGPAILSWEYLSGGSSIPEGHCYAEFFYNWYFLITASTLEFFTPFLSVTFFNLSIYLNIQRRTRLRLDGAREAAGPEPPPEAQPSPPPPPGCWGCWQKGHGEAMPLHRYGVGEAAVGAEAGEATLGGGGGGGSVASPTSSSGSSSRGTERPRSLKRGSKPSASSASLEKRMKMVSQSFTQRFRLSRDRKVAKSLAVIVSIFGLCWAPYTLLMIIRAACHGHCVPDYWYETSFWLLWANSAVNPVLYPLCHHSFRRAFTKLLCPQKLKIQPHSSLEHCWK
Chain of Histamine H3 receptor (Cavia porcellus, UniProt Q9JI35) (Q9JI35 whole entry): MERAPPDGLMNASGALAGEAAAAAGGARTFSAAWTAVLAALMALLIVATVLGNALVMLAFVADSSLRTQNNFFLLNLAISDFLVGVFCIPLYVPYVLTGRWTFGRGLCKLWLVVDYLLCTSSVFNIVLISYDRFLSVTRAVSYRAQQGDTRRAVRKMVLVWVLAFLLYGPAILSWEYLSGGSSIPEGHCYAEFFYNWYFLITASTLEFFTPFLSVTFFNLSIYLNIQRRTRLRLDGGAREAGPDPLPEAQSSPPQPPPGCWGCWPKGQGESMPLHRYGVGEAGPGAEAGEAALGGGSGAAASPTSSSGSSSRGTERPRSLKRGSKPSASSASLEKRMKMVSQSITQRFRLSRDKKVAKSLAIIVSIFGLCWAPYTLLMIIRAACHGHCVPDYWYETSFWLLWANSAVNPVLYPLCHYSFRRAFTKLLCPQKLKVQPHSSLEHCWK

Compound | Ki (Histamine H3 receptor [1]; read-out: Ki) [nM] | Ki (Histamine H3 receptor [2]) [nM] | Ki (Histamine H3 receptor [1]; read-out: pKi (converted)) [nM] | IC50 (Histamine H3 receptor [3]) [nM] | Ki (Histamine H3 receptor [4]) [nM]
CC[C@@H](C)[C@@H](N)C(=O)N(C)[C@H]1CC[C@@]2(C)C(=CC[C@H]3[C@@H]4CC[C@@H]5[C@H](C)N(C)C[C@@]54CC[C@@H]32)C1 | 2.88 | 0.37 |  |  | 
O=C(c1ccc(OCCCc2cnc[nH]2)cc1)C1CC1 [CIPROXIFAN] |  |  | 0.631 |  | 
CC[C@H](C)[C@H](N)C(=O)N(C)[C@H]1CC[C@@]2(C)C(=CC[C@H]3[C@@H]4CC[C@@H]5[C@H](C)N(C)C[C@@]54CC[C@@H]32)C1 | 0.49 | 0.22 |  |  | 
C[C@H]1[C@H]2CC[C@H]3[C@@H]4CC=C5C[C@@H](N(C)c6ccc(C#N)cc6)CC[C@]5(C)[C@H]4CC[C@]23CN1C | 24 | 1.66 |  |  | 
CC(=O)N[C@@H](CC(C)C)C(=O)N(C)[C@H]1CC[C@@]2(C)C(=CC[C@H]3[C@@H]4CC[C@@H]5[C@H](C)N(C)C[C@@]54CC[C@@H]32)C1 | 6.76 | 1.62 |  |  | 
COC(=O)N(C)[C@H]1CC[C@@]2(C)C(=CC[C@H]3[C@@H]4CC[C@@H]5[C@H](C)N(C)C[C@@]54CC[C@@H]32)C1 | 257 | 60.3 |  |  | 
CCS(=O)(=O)N(C)[C@H]1CC[C@@]2(C)C(=CC[C@H]3[C@@H]4CC[C@@H]5[C@H](C)N(C)C[C@@]54CC[C@@H]32)C1 | 141 | 23.4 |  |  | 
CN(C)CCCOc1c(Br)cc(CCN(C)C)cc1Br [APLYSAMINE] |  |  |  | 500 | 
C[C@H]1[C@H]2CC[C@H]3[C@@H]4CC=C5C[C@@H](N(C)C(=O)C6CC6)CC[C@]5(C)[C@H]4CC[C@]23CN1C | 380 | 60.3 |  |  | 
CN1C[C@]23CC[C@H]4[C@@H](CC=C5C[C@@H](N(C)C)CC[C@@]54C)[C@@H]2CC[C@@H]3C1=O |  | 543 |  |  | 1000
CC(=O)N(C)[C@H]1CC[C@@]2(C)C(=CC[C@H]3[C@@H]4CC[C@@H]5[C@H](C)N(C)C[C@@]54CC[C@@H]32)C1 | 257 | 110 |  |  | 
C[C@H]1[C@H]2CC[C@H]3[C@@H]4CC=C5C[C@@H](N(C)S(=O)(=O)c6ccccc6)CC[C@]5(C)[C@H]4CC[C@]23CN1C | 61.7 | 7.76 |  |  | 
C[C@H]1[C@H]2CC[C@H]3[C@@H]4CC=C5C[C@@H](N(C)C(=O)c6ccncc6)CC[C@]5(C)[C@H]4CC[C@]23CN1C | 155 | 16.2 |  |  | 
